The results in this text go back to US4882314A, “A composition and method of treating selected malignant conditions” (priority 1987, dated 1989).

For one data set, the system named is W2K.11 cells. The data set is described as follows: SV40 test: inhibition of proliferation of SV40-transformed malignant cells. Conditions: Mus musculus, read-out: proliferation inhibition ratio. The data set is classed as cell-based, C3H mice. How it is done:
The SV40 (Simian Virus 40) method was adopted for determination of the carinostatic activity. According to this method, normal kidney cells of mice are transformed to malignant cells by the oncogenic virus SV40, the malignant cells are cultured, the test compound is added to the culture medium, the ratio of inhibition of proliferation of the cells is calculated and the carcinostatic activity is determined based on the calculated value. This method has recently been widely used because accurate results can be obtained [see proceedings of the Society for Experimental Biology and Medicine, 114, pages 721-727 (1963)].
The W2K.11 cells obtained by a malignant transformation of normal kidney cells of C3H mice by the oncogenic virus SV40 were used as cells for the test, and they were cultured according to the following method.
(1) Preparation of Culture Medium:
9.4 g of Eagle MEM Medium (manufactured by Nissui Seiyaku K.K.) was dissolved in 900 ml of distilled water and the solution was sterilized at 120° C., under pressure for 15 minutes. After cooling the sterilized solution, 100 ml of calf serum and 3 to 5 ml of a 10% aqueous solution of sodium hydrogencarbonate sterilized separately at 115° C. under pressure for 15 minutes were added to the solution to adjust the pH to 7.1 to 7.2. Just before the resulting culture medium was used, 10 ml of a L-glutamine solution (2.92 g/100 ml) filtered through A millipore filter was added thereto.
(2) Preparation of Test Cells:
The frozen test cells preserved in a deep freezer (-80° C.) with dimethyl sulfoxide added to the above culture medium to a final concentration of 10% were […] at room temperature and subjected to centrifugal separation under 670×g for 5 minutes. The supernatant was discarded and the precipitated cells were suspended in 50 ml of the culture medium. Then, the culture medium was transferred to a Roux flask and culturing was conducted at 37° C. The cells began to grow while adhering to the bottom of the flask, and sufficient growth was obtained in 3 to 4 days. […]

Data set [1] in a line: acute toxicity, oral administration or subcutaneous injection in mice. The class given is in vivo. As to conditions: mouse, in vivo; oral administration in mice. The protocol: (§1) The LD50 (mg/kg) value of the compound which is the active ingredient of the present invention, for example, in case of oral administration in mice is about 3000 mg/kg.
For a further data set, the system named is mice. The description is as above. The data set is classed as in vivo. Conditions: subcutaneous injection or oral administration in mice. How it is done:
as §1

Data set [2] in a line: toxicity / side effects on continuous administration. The data set is classed as in vivo.
In the next data set the test system is colon carcinoma. Nature of the data set: Experiment 2: clinical treatment of colon carcinoma with metastatic cancer in the liver. The class given is in vivo, human. The protocol:
Person, colon carcinoma with metastatic cancer of 13 cm×10 cm×8 cm in the liver, abdominal dropsy observed.
The patient was subjected to abdominal surgery on June 4, 1979 but extraction of the cancer was impossible and the incised abdoment was immediately sutured.
Administration of 4,6-O-benzylidene-D-glucopyranose at a dosage of 20 mg/day/man (in the form of a physiological saline solution having an active ingredient concentration of 4 mg/ml) by intraperitoneal injection was stated on Aug. 25, 1979. The preparation for injection was prepared according to Example 1. In about one month, the abdominal dropsy disappeared, appetite improved and the overall body condition improved.
A C.T. scan of the liver of the patient before the start of the intraperitoneal injection, that was taken on Aug. 25, 1979, is shown in FIG. 1-A (the metastic lesion (A) appears on the left-side of the tomogram), and a C.T. scan of the same region taken on Dec.

The next data set concerns tongue cancer. The data set is described as follows: Experiment 3: clinical treatment of tongue cancer. The class given is in vivo, human.
In data set [3] the test system is peritonitis cartinimatosa. The data set is described as follows: Experiment 4: clinical treatment of peritonitis carcinomatosa. The class given is in vivo, human. As to conditions: 200 mg/day/man intravenous infusion. The protocol: Administration of 4,6-O-benzylidene-D-glucopyranose at a dosage of 200 mg/day/man by intravenous infusion was started for the treatment of the patient.

The test system of a further data set is primary liver tumor. Nature of the data set: Experiment 5: clinical treatment of primary liver tumor. The data set is classed as in vivo, human. Conditions: 200 mg/day/man intravenous infusion. The protocol: 4,6-O-benzylidene-D-glucopyranose was continuously administered at a dosage of 200 mg/day/man by intravenous infusion.
A further data set deals with stomach cancer. Nature of the data set: Experiment 6: clinical treatment of stomach cancer. The class given is in vivo, human. As to conditions: 200 mg/day/man intravenous infusion. The protocol:
Patient: Stomach cancer of the terminal stage, the stomach extracted but many metastasized lesion in abdominal cavity, peritonitis cartinimatosa observed. […] The preparation for infusion was prepared according to Example 1. […] However, the patient died about 3 months after the start of administration.

In data set [4] the test system is colon carcinoma, tongue cancer, peritonitis carcinomatosa, liver cancer and stomach cancer. The data set is described as follows: clinical experiments, summary statement. The data set is classed as in vivo, human. As to conditions: intravenous, about 20 to about 200 mg/day/man.
Data set [5] in a line: stability and solubility, general statement. The data set is classed as physicochemical.
[6] abbreviates: 20 mg/day/man intraperitoneal injection, about 3 months.
Setting [7] is: 20 mg/day/man intraperitoneal injection, about one month.
The mark [8] stands for this setting: 200 mg/day/man intravenous infusion, after 10 days.

Usually LD50 stands for the dose expected to kill half of the subjects tested. A higher LD50 goes with a less toxic substance. Consider `OC1O[C@@H]2COC(c3ccccc3)O[C@H]2[C@H](O)[C@H]1O` (stereo partly drawn) [4,6-O-benzylidene-D-glucopyranose], for which the inhibition at 125 µg/mL in the data set with W2K.11 cells (72 h, 125 mcg/ml) turned out to be 23%. In addition, the inhibition at 250 µg/mL in the data set with W2K.11 cells (72 h, 250 mcg/ml) came out at 37%. Moreover, the inhibition at 500 µg/mL in the data set on W2K.11 cells (500 mcg/ml, 72 hours of treatment) amounted to 72%. In [1], this compound gave an LD50 of roughly 3000 mg/kg. The “acute toxicity compared with other carcinostatic agents” value with mice was “much lower than that of other carinostatic agents”. Also, the toxicity result in data set [2] (continuous administration at the above-mentioned dosage) was “no toxicity is observed”. The “toxicity, general statement” value in data set [2] (in vivo) was “lowly toxic”. Moreover, in data set [2] (when administered), the “excretion from a living body” value is given as “readily excreted from a living body” and the side effects entry was “no side effects are caused”. In the data set on colon carcinoma (setting [6]), the “CEA unit value (the hepatic function test)” value was “remarkably reduced” and the “metastatic lesion in the liver” value was “almost disappeared”. In the data set with colon carcinoma (20 mg/day/man intraperitoneal injection, about 4 months, C.T. scan FIG. 1-A vs FIG. 1-B), the “metastatic lesion in the liver” value is “completely disappeared”. Moreover, in the data set on colon carcinoma (setting [7]), the abdominal dropsy result was “disappeared”, the appetite result is on record as “improved”, the “metastatic lesion in the liver (C.T. scan)” value is reported as “contraction of the metastatic lesion in the liver had started” and the overall body condition entry is “improved”. Also, the patient outcome in the data set on colon carcinoma (after treatment, 20 mg/day/man intraperitoneal injection) is listed as “has lead a normal life since then”. Moreover, in the data set with tongue cancer (200 mg/day/man intravenous infusion), the “histopathology of the granular substance released from the submaxillar tumor” value is on record as “composed of histopathologically keratinized squamous cells”. The “malignant lesion of the tongue (photographs FIGS. 2-A, 3-A vs 2-B, 3-B)” value in the data set on tongue cancer (200 mg/day/man intravenous infusion, Oct. 15 to Nov. 19, 1979) is listed as “disappeared”. In addition, in the data set with tongue cancer (setting [8]), the submaxillar tumor result was “softened and began to release a granular substance”; the “tumor on the tongue” value is reported as “began to disappear”. In the data set with tongue cancer (200 mg/day/man intravenous infusion, terminal stage), the patient outcome is listed as “died after about one month of treatment”. The patient outcome in data set [3] is reported as “died of paritonitis periforative about one month after the start of treatment”. In data set [3] (one week), the abdominal dropsy result is listed as “disappeared”; the “cancer metastasized to the skin” value is on record as “contraction of the cancer metastasized to the skin”; the “condition of the disease” value is “subjective and objective improvements”. In the data set with primary liver tumor (about one month), the abdominal dropsy entry is “reduction in the abdominal dropsy” and the liver tumor result is recorded as “prominent contraction of the liver tumor”. For the same compound, the patient outcome with primary liver tumor (terminal stage) is “died after about four months of treatment”. In the data set on stomach cancer (one month), the abdominal dropsy result is reported as “disappeared” and the subjective symptoms entry is “remarkable improvement”. For the same compound, the “time to death after start of administration” value in the data set on stomach cancer (terminal stage) is given as “about 3 months”. The clinical effect result in data set [4] is listed as “prominent effect”. For the same compound, in data set [5], the stability result is recorded as “very stable” and the water solubility entry is “water-soluble”.
For `O=c1[nH]c(=O)n(C2CCCO2)cc1F` (stereo not shown) [FT 207, reference compound], in the data set with colon carcinoma (FT 207 treatment with cobalt 60 radiotherapy, initiated before the operation), the “effect of prior treatment” value is given as “no effect had been observed”.
On to `N#C[C@H](O[C@@H]1O[C@H](CO[C@@H]2O[C@H](CO)[C@@H](O)[C@H](O)[C@H]2O)[C@@H](O)[C@H](O)[C@H]1O)c1ccccc1` [laetrile, amygdalin, reference compound], for which the “effect of prior treatment” value with tongue cancer (prior conventional chemotherapy, BCG, radiotherapy and laetrile) is recorded as “no effect could be observed”.
